In article PMC12588090, “C6-Alkoxy substituted penicillins are potent non-covalently binding inhibitors of the SARS-CoV-2 main protease” (RSC Medicinal Chemistry, 2025):
Values joined by “and” are separate entries in the source; they are usually repeats but may differ in a detail not shown here. Equal entries are not always repeated. “Also recorded” adds a separate entry of the source. Where two headings read alike, the source gives them in different places.

How the values were obtained:
SARS-CoV-2 M^pro [1] = target: T1, SARS-CoV-2 M^pro (Severe acute respiratory syndrome coronavirus 2, UniProt P0DTD1); assay: SPE-MS M^pro inhibition assay; assay type: biochemical; conditions: for increase in M^pro inhibition potency compared to (S)-sulfoxide 22: ratio of IC50 values
SARS-CoV-2 M^pro [2] = target: T1, SARS-CoV-2 M^pro; assay type: binding; conditions: for covalent reaction with / modification of M^pro / species with mass shifts corresponding to potential acyl–enzyme complexes: β-lactam 15 μM; for covalent reaction with / modification of M^pro: M^pro 3.0 μM (5 : 1), denaturing MS, 20 mM HEPES pH 7.5; for covalent reaction with / modification of M^pro / mass shift of concentration-dependent M^pro adduct / species with mass shifts corresponding to potential acyl–enzyme complexes: >15 h incubation; for mass shift of concentration-dependent M^pro adduct: intensity rises with penicillin derivative : M^pro ratio; for species with mass shifts corresponding to potential acyl–enzyme complexes: M^pro 3.0 μM
[3] = test system: human leukocyte elastase (HLE); parameters: method as in doi:10.1016/S0960-894X(01)80940-9; conditions: cited from earlier work
SARS-CoV-2 M^pro [4] = target: T1, SARS-CoV-2 M^pro; conditions: read-out: IC50 (reported) (converted), cited from earlier work
[5] = SPE-MS, M^pro 0.05 μM, substrate 2.0 μM, n = 3, mean ± SD, freshly prepared DMSO stocks for 8, read-out: IC50
[6] = literature value given in Table 1
[7] = IC50, SPE-MS, M^pro 0.05 μM, substrate 2.0 μM, n = 3, mean ± SD, freshly prepared DMSO stocks for 8
[8] = SPE-MS, M^pro 0.05 μM, substrate 2.0 μM, n = 3, mean ± SD, freshly prepared DMSO stocks for 8

## CC1(C)[C@H](C(=O)OCc2ccccc2)N2C(=O)[C@](NC(=O)COc3ccccc3)(OCc3ccccc3)[C@H]2S1(=O)=O [C00008]
SARS-CoV-2 M^pro [1]; [5]
  IC50: 8.3 ± 2.6 µM

## CO[C@H]1C(=O)N2[C@@H]1SC(C)(C)[C@@H]2C(=O)OCc1ccccc1 [26a]
SARS-CoV-2 M^pro [2]
  covalent reaction with / modification of M^pro: in no case were substantial amounts of species corresponding to covalent modification observed; also recorded: did not evidence covalent modification
SARS-CoV-2 M^pro [1]; [5]
  IC50: 1.2 ± 0.1 µM

## CCO[C@@]1(NC(=O)COc2ccccc2)C(=O)N2[C@@H](C(=O)OCc3ccccc3)C(C)(C)S(=O)(=O)[C@@H]21 [10a]
SARS-CoV-2 M^pro [1]; [5]
  IC50: 5.8 ± 1.9 µM

## CO[C@@]1(NC(=O)Cc2ccccc2)C(=O)N2[C@@H](C(=O)OCc3ccccc3)C(C)(C)S[C@@H]21 [compound 25]
SARS-CoV-2 M^pro [1]; [5]
  IC50: 11 ± 6 µM

## CCO[C@H]1C(=O)N2[C@@H](C(=O)OCc3ccccc3)C(C)(C)S(=O)(=O)[C@H]12 [27b]
SARS-CoV-2 M^pro [1]; [5]
  IC50: 44 ± 4 µM
[3]
  inhibition of HLE: covalent inhibitors

## CC1(C)S[C@@H]2[C@H](NC(=O)Cc3ccccc3)C(=O)N2[C@H]1C(=O)OCc1ccccc1 [compound 18]
SARS-CoV-2 M^pro [1]; [5]
  IC50: > 50 µM

## CC1(C)C(C(=O)OCc2ccccc2)N2C(=O)C(OCc3ccccc3)C2S1(=O)=O (stereo not shown) [27f]
SARS-CoV-2 M^pro [1]; [5]
  IC50: 35 ± 2 µM
[3]
  inhibition of HLE: covalent inhibitors

## CCO[C@H]1C(=O)N2[C@@H]1SC(C)(C)[C@@H]2C(=O)OCc1ccccc1 [26b]
SARS-CoV-2 M^pro [1]; [5]
  IC50: 0.8 ± 0.1 µM

## CC1(C)SC2C(OCc3ccccc3)C(=O)N2C1C(=O)OCc1ccccc1 (stereo not shown) [26f]
SARS-CoV-2 M^pro [1]; [5]
  IC50: 7.3 ± 1.4 µM

## CC1(C)S[C@@H]2[C@H](NC(=O)COc3ccccc3)C(=O)N2[C@H]1C(=O)OCc1ccccc1 [compound 5]
SARS-CoV-2 M^pro [4]; [6]
  IC50: > 50 µM
SARS-CoV-2 M^pro [1]; [7]
  IC50: > 50 µM
SARS-CoV-2 M^pro [1]; [8]
  IC50: no inhibition in the tested concentration range

## CC1(C)C(C(=O)OCc2ccccc2)N2C(=O)C(NC(=O)COc3ccccc3)C2[S+]1[O-] (stereo not shown) [compound 6]
SARS-CoV-2 M^pro [4]; [6]
  IC50: ~23 µM
SARS-CoV-2 M^pro [1]; [5]
  IC50: 6.3 ± 1 µM

## CC1(C)C(C(=O)OCc2ccccc2)N2C(=O)C(Oc3ccccc3)C2S1(=O)=O (stereo not shown) [27e]
SARS-CoV-2 M^pro [1]; [5]
  IC50: > 50 µM

## CC(C)(C)O[C@H]1C(=O)N2[C@@H]1SC(C)(C)[C@@H]2C(=O)OCc1ccccc1 [26d]
SARS-CoV-2 M^pro [1]; [5]
  IC50: 39 ± 9 µM

## COC1(NC(=O)COc2ccccc2)C(=O)N2C1[S+]([O-])C(C)(C)C2C(=O)OCc1ccccc1 (stereo not shown) [compound 7]
SARS-CoV-2 M^pro [2]
  covalent reaction with / modification of M^pro: in no case were substantial amounts of species corresponding to covalent modification observed; also recorded: low levels of reaction
SARS-CoV-2 M^pro [1]; [5]
  IC50: ~2.3 µM and 2.3 µM

## CC1(C)S[C@@H]2[C@H](NC(=O)Cc3ccccc3)C(=O)N2[C@H]1C(=O)O [C00011, reference compound]
SARS-CoV-2 M^pro [4]; literature value in Table 2
  IC50: > 50 µM
SARS-CoV-2 M^pro [1]; [7]
  IC50: > 50 µM

## CO[C@@]1(NC(=O)COc2ccccc2)C(=O)N2[C@@H](C(=O)OCc3ccccc3)C(C)(C)S[C@@H]21 [compound 8]
SARS-CoV-2 M^pro [1]; [8]
  IC50: no inhibition in the tested concentration range
SARS-CoV-2 M^pro [1]; [5]
  IC50: > 50 µM
SARS-CoV-2 M^pro [1]; additional replicates using premade DMSO stock solutions, read-out: IC50
  IC50: ~5 µM

## CC1(C)[C@H](C(=O)OCc2ccccc2)N2C(=O)[C@](NC(=O)COc3ccccc3)(O[C@@H]3CCNC3=O)[C@H]2S1(=O)=O [C00006]
SARS-CoV-2 M^pro [1]; [5]
  IC50: 5.3 ± 1.6 µM

## CC(C)(C)O[C@H]1C(=O)N2[C@@H](C(=O)OCc3ccccc3)C(C)(C)S(=O)(=O)[C@H]12 [27d]
SARS-CoV-2 M^pro [1]; [5]
  IC50: 21 ± 3 µM

## COC1(NC(=O)Cc2ccccc2)C(=O)N2C1[S+]([O-])C(C)(C)C2C(=O)OCc1ccc([N+](=O)[O-])cc1 (stereo not shown) [compound 2]
SARS-CoV-2 M^pro [4]; literature value in Table 2
  IC50: ~3.5 µM
SARS-CoV-2 M^pro [2]; 5 : 1 inhibitor : M^pro, after 45 min, low levels
  mass shift of M^pro adduct: +32 Da
SARS-CoV-2 M^pro [2]; 5 : 1 inhibitor : M^pro, formed within 15 min, increasing intensity
  mass shift of M^pro adduct: +498 Da
SARS-CoV-2 M^pro [2]; 5 : 1 inhibitor : M^pro, t = 0 min / initial, weak intensity
  mass shift of M^pro adduct: +515 Da
SARS-CoV-2 M^pro [2]; 10:1 inhibitor : M^pro, after 45 min, low intensity
  mass shift of M^pro adduct: +32 Da
SARS-CoV-2 M^pro [2]; 10:1 inhibitor : M^pro, increasing intensity over 45 min
  mass shift of M^pro adduct: +498 Da
SARS-CoV-2 M^pro [2]; 10:1 inhibitor : M^pro, initial formation
  mass shift of M^pro adduct: +515 Da
SARS-CoV-2 M^pro [2]
  mass shift of concentration-dependent M^pro adduct: +32 Da
  covalent reaction with / modification of M^pro: in no case were substantial amounts of species corresponding to covalent modification observed
  species with mass shifts corresponding to potential acyl–enzyme complexes: low levels
SARS-CoV-2 M^pro [1]; [5]
  IC50: 0.5 ± 0.1 µM
SARS-CoV-2 M^pro [1]
  increase in M^pro inhibition potency compared to (S)-sulfoxide 22: ~9 fold

## CC1(C)S[C@H]2N(C(=O)[C@]2(NC(=O)COc2ccccc2)OCc2ccccc2)[C@H]1C(=O)OCc1ccccc1 [16c]
SARS-CoV-2 M^pro [1]; [8]
  IC50: inactive
SARS-CoV-2 M^pro [1]; [5]
  IC50: > 50 µM

## CC1(C)C(C(=O)OCc2ccccc2)N2C(=O)C(NC(=O)Cc3ccccc3)C2[S+]1[O-] (stereo not shown) [compound 21]
SARS-CoV-2 M^pro [1]; [5]
  IC50: > 50 µM

## CO[C@@]1(NC(=O)Cc2ccccc2)C(=O)N2[C@@H](C(=O)OCc3ccccc3)C(C)(C)[S@@+]([O-])[C@@H]21 [compound 3, C6-methoxy (R)-sulfoxide penicillin G benzyl ester]
SARS-CoV-2 M^pro [2]
  mass shift of concentration-dependent M^pro adduct: +32 Da
  covalent reaction with / modification of M^pro: in no case were substantial amounts of species corresponding to covalent modification observed
  species with mass shifts corresponding to potential acyl–enzyme complexes: low levels
SARS-CoV-2 M^pro [1]; [5]
  IC50: ~0.8 µM and 0.8 µM
SARS-CoV-2 M^pro [1]
  increase in M^pro inhibition potency compared to (S)-sulfoxide 22: ~9 fold

## CC1(C)[C@H](C(=O)OCc2ccccc2)N2C(=O)[C@@H](NC(=O)Cc3ccccc3)[C@H]2S1(=O)=O [compound 19]
SARS-CoV-2 M^pro [1]; [5]
  IC50: > 50 µM

## CO[C@H]1C(=O)N2[C@@H](C(=O)OCc3ccccc3)C(C)(C)S(=O)(=O)[C@H]12 [27a]
SARS-CoV-2 M^pro [2]
  covalent reaction with / modification of M^pro: in no case were substantial amounts of species corresponding to covalent modification observed; also recorded: did not evidence covalent modification
SARS-CoV-2 M^pro [1]; [7]
  IC50: 7.7 ± 4.9 µM

## CC(C)O[C@H]1C(=O)N2[C@@H](C(=O)OCc3ccccc3)C(C)(C)S(=O)(=O)[C@H]12 [27c]
SARS-CoV-2 M^pro [1]; [5]
  IC50: 19 ± 14 µM

## CC(C)O[C@H]1C(=O)N2[C@@H]1SC(C)(C)[C@@H]2C(=O)OCc1ccccc1 [26c]
SARS-CoV-2 M^pro [1]; [5]
  IC50: 47 ± 13 µM

## CC1(C)SC2C(Oc3ccccc3)C(=O)N2C1C(=O)OCc1ccccc1 (stereo not shown) [26e]
SARS-CoV-2 M^pro [1]; [5]
  IC50: > 50 µM

## CO[C@@]1(NC(=O)Cc2ccccc2)C(=O)N2[C@@H](C(=O)O)C(C)(C)S[C@@H]21 [compound 24, C6-methoxypenicillin G acid]
SARS-CoV-2 M^pro [1]; moderate inhibition potency observed in some cases (variable values, possible instability in DMSO), read-out: IC50
  IC50: 15 ± 8 µM

## CO[C@@]1(NC(=O)Cc2ccccc2)C(=O)N2[C@@H](C(=O)OCc3ccccc3)C(C)(C)S(=O)(=O)[C@@H]21 [compound 20]
SARS-CoV-2 M^pro [1]; [5]
  IC50: 11 ± 4 µM

## CO[C@@]1(NC(=O)COc2ccccc2)C(=O)N2[C@@H](C(=O)OCc3ccccc3)C(C)(C)S(=O)(=O)[C@@H]21 [compound 9]
SARS-CoV-2 M^pro [2]
  covalent reaction with / modification of M^pro: in no case were substantial amounts of species corresponding to covalent modification observed
SARS-CoV-2 M^pro [1]; [8]
  IC50: inactive
SARS-CoV-2 M^pro [1]; [5]
  IC50: > 50 µM

## CC1(C)[C@H](C(=O)OCc2ccccc2)N2C(=O)[C@@H](NC(=O)COc3ccccc3)[C@H]2S1(=O)=O [compound 1, penicillin V sulfone benzyl ester]
SARS-CoV-2 M^pro [4]; [6]
  IC50: ~6.6 µM
SARS-CoV-2 M^pro [1]; [5]
  IC50: 2.9 ± 0.4 µM

## CC1(C)[C@H](C(=O)OCc2ccccc2)N2C(=O)[C@@H](NC(=O)Cc3ccccc3)[C@H]2[S@+]1[O-] [compound 23]
SARS-CoV-2 M^pro [1]; [5]
  IC50: > 50 µM

## CO[C@@]1(NC(=O)Cc2ccccc2)C(=O)N2[C@@H](C(=O)OCc3ccccc3)C(C)(C)[S+]([O-])[C@@H]21 (stereo partly shown) [compound 22]
SARS-CoV-2 M^pro [2]
  covalent reaction with / modification of M^pro: no evidence for covalent M^pro modification
SARS-CoV-2 M^pro [1]; [5]
  IC50: ~7.3 µM and 7.3 µM
